Reference: patent publication US20230026808A1, “COMPOUNDS, COMPOSITIONS, AND METHODS FOR TREATING ISCHEMIA-REPERFUSION INJURY AND/OR LUNG INJURY” (YALE UNIVERSITY, priority 2019, published 2023)
“Also recorded” adds a separate entry of the source.

Assays:
[1] = tested on: ERK phosphorylation; assay: ERK phosphorylation in mouse neutrophils; assay type: cell-based
Description: Mouse bone marrow neutrophils were isolated from long bones. After lysis of red blood cells (RBCs) with ACK buffer (155 mM NH4Cl, 10 mM KHCO3 and 127 μM EDTA), bone marrow cells were separated on a discontinuous Percoll gradient composed of 81%, 62%, and 45% Percoll. Neutrophils were collected at the interphase between 81% and 62% Percoll, washed in HBSS, and used for assays.

[2] = tested on: human neutrophils; assay: ROS production assay in human neutrophils; assay type: cell-based; conditions: 100 nM fMLP
Description: For measurement of extracellular ROS release, isolated neutrophils were placed in the reaction buffer (0.25% BSA in HBSS with Ca^2+ and Mg^2+, 10 mM Isoluminol, 100 u/ml HRP) and stimulated with fMLP or PMA. For measurement of total ROS production, neutrophils were incubated with the reaction buffer (0.25% BSA in HBSS with Ca^2+ and Mg^2+, 10 mM Luminol, 100 u/ml HRP), followed with stimulations. Chemiluminescence was read continuously in a plate reader (Perkin Elmer). For reconstituted ROS production system in COS-7 cells, PMA (2 μM) was used for stimulation.
Buffy coat of human blood samples were subjected to neutrophil enrichment using the EasySep Human Neutrophil Enrichment Kit (Stemceli Technologies) according to manufacturer's protocol. Briefly, the depletion antibody cocktail was mixed with the buffy coat followed by incubation with magnetic particles. The EasySep Magnet was then used to immobilize unwanted cells as the label-free neutrophils were poured into another conical tube. Enriched neutrophils were pelleted and resuspended in an assay buffer (Hanks buffer with Ca^2+ and Mg^2+, 0.25% BSA) for ROS production assay or Western analysis.

[3] = tested on: HCl-induced ALI; assay: Acid aspiration (HCl)-induced acute lung injury mouse model; assay type: in vivo; conditions: for BAL cytokine contents / myeloid cell (neutrophil) infiltration in BAL and lungs: injured lungs; for phosphorylated AKT levels in lung extracts: lungs subjected to ALI, AKT S473; for effect on survival: mice lacking p47^phox in hematopoietic cells
Description: Mice were anaesthetized by ketamine/Xylazine ([…] and 100 mg/kg) and were secured vertically from their incisors on a custom-made mount for orotracheal instillation. A 22G catheter (Jelco, Smiths Medical) was guided 1.5 cm below the vocal cords, and 2.5 μl/g of 0.05 M HCl was instilled. Four hours after the induction of injury, 100 μl of FITC-labeled albumin (10 mg/ml) was injected via retro-orbital vein. Mice were euthanized for sample collection 6 hours after the induction of injury. For the baseline permeability measurement, saline without HCl was administered the same way. The baseline permeability measurement was subtracted in the data presented.
In survival experiments, mice received 2.5 μl/g of 0.1 M HCl orotracheally and the observation period was extended up to 30 h.
Acute lung injury indices were quantified using HE-stained lung sections. The quantification of perivascular interstitial edema was done as the ratios of perivascular interstitial edema areas to vessel areas. More than 8 sections from the same lobes of the lungs were quantified for each mouse.
Fifteen min after HCl ALI-induction, BALs were collected from the lungs. Mouse lungs were then mechanically dissociated and filtered through a 40 μm mesh to generate a single-cell suspension, and red blood cells were lysed. BAL cells, which were pelleted and resuspended, and whole lung cells were labeled for 30 minutes at 37° C. with 1 μM CM-H2-DCFDA (C6827, Invitrogen). The cells were then labeled for the surface markers (CD45; BD Bioscience 564279; Ly-6G; BD Bioscience 560602). Flow cytometry was performed on a BD LSRII.

[4] = tested on: murine hepatitis virus strain 1 (MHV-1); assay: Pazopanib IV in the MHV-1 mouse model; assay type: in vivo, A/J mice
Description: The murine hepatitis virus strain 1 (MHV-1) model was adopted for the pharmacology study. All MHV-1-infected A/J mice developed progressive interstitial edema, neutrophil/macrophage infiltrates, and hyaline membranes, leading to the death of all mice. Two studies have been completed to date. In the first one, mice were administered a 3-dose regimen of the study intervention at 6, 21, and 32 hours after virus inoculation. In the second, mice were administered a 2-dose regimen at 24 and 33 hours after inoculation.
A/J mice, 8 to 10 weeks old, were anaesthetized by Ketamine/Xylazine (100 and 10 mg/kg) and were kept under anesthesia during the whole procedure using Ketamine/Xylazine. After being deeply anesthetized (assessed by applying a noxious stimulus, e.g., toe pinch, and observing no reflex response and no change in either the rate or character of respiration), mice received an intranasal inoculation of 5000 PFU MHV-1 in 20 μL Dulbecco's modified Eagle's medium. After the administration, the mice were monitored until their breathing gradually returned to normal. Then the mice were returned to the recovery cage on the heating pad and monitored for their anesthesia status. […] The green fluorescence of BAL was measured by the plate reader. BAL fluorescence intensities from pazopanib-treated mice were normalized to the intensities from vehicle-control-treated mice wherein higher intensity corresponds to greater permeability.
A/J mice, 8-10 weeks old, were anaesthetized by Ketamine/Xylazine (100 and 10 mg/kg) and were kept under anesthesia during the whole procedure using Ketamine/Xylazine. After being deeply anesthetized (assessed by applying a noxious stimulus, e.g., toe pinch, and observing no reflex response and no change in either the rate or character of respiration), mice received an intranasal inoculation of 6000 PFU MHV-1 in 20 μL Dulbecco's modified Eagle's medium. After the administration, the mice were monitored until their breathing gradually returned to normal. Then the mice were returned to the recovery cage on the heating pad and monitored for their anesthesia status. […]

[5] = IV toxicology and toxicokinetic studies in rats; conditions: for safety margin based on Cmax: vs Cmax 3.4 μg/mL in man (20 mg IV)
[6] = HCl model, therapeutic modality, intranasally post injury induction
[7] = rat, 5 days, IV 20 minute infusion

Question: With `Cc1ccc(Nc2nccc(N(C)c3ccc4c(C)n(C)nc4c3)n2)cc1S(N)(=O)=O` [pazopanib, 5-((4-((2,3-dimethyl-2H-indazol-6-yl)(methyl)amino)pyrimidin-2-yl)amino)-2-methylbenzenesulfonamide] as the compound, how does the ERK phosphorylation [1] read?
Answer: The ERK phosphorylation was “did not affect”.

Question: What about the ROS production [2] of the same compound?
Answer: Its ROS production is “increases ROS production”.

Question: What about the mortality ([3]; HCl model, prophylactic, intranasally prior to injury) of the same compound?
Answer: The mortality was “reduced”.

Question: And the mortality [3, 6]?
Answer: Its mortality is “significant reductions; also recorded: reduces mortality”.

Question: And the perivascular interstitial edema [3, 6]?
Answer: The perivascular interstitial edema was “significant reductions”.

Question: And the BAL cytokine contents [3]?
Answer: Its BAL cytokine contents is “did not affect”.

Question: And the “myeloid cell (neutrophil) infiltration in BAL and lungs” value [3]?
Answer: The value was “did not affect”.

Question: What about the BAL cytokine contents ([3]; listed as Pazopanib) of the same compound?
Answer: The BAL cytokine contents was “no significant effects”.

Question: And the “myeloid cell (neutrophil) infiltration in BAL and lungs” value ([3]; listed as Pazopanib)?
Answer: The value was “no significant effects”.

Question: What about the “phosphorylated AKT levels in lung extracts” value [3] of the same compound?
Answer: The value was “increases in phosphorylated AKT levels”.

Question: And the “phosphorylated AKT levels in lung extracts” value ([3]; listed as Pazopanib)?
Answer: Its value is “increases phosphorylation of AKT at S473”.

Question: And the effect on survival [3]?
Answer: The effect on survival was “abrogated the effects of pazopanib”.

Question: And the effect on survival ([3]; listed as Pazopanib)?
Answer: The effect on survival was “failed to increase survival”.

Question: What about the “ROS in neutrophils in BALs and lungs” value ([3]; pazopanib-treated mice subjected to HCl lung insult, DCFDA) of the same compound?
Answer: The value was “elevated ROS”.

Question: What about the “projected clinical efficacious dose” value ([4]; assuming 70 kg human) of the same compound?
Answer: Its value is “approximately 16.8 mg”.

Question: And the “human equivalent dose of efficacious dose” value ([4]; from 3 mg/kg in mouse)?
Answer: The value was 0.24 mg/kg.

Question: And the efficacious dose ([4]; mouse coronavirus-induced lung injury model)?
Answer: The efficacious dose was “approximately 3 mg/kg”.

Question: What about the Margin of safety ([5]; 2-week rat study vs 20 mg clinical starting dose) of the same compound?
Answer: The Margin of safety was 5.6 fold.

Question: And the “safety margin based on Cmax” value ([5]; female rats)?
Answer: Its value is 16.2 fold.

Question: What about the “safety margin based on Cmax” value ([5]; male rats) of the same compound?
Answer: Its value is 13.8 fold.

Question: And the “HED for 70 kg human” value ([5]; rat, 2-week study)?
Answer: The value was 112 mg.

Question: What about the “HED of NOAEL” value [5, 7] of the same compound?
Answer: Its value is 8 mg/kg.

Question: And the NOAEL [5, 7]?
Answer: The NOAEL was 50 mg/kg.

Question: What about the Margin of safety ([5]; rat, 5 days, IV 20 minute infusion, clinical dose 20 mg/day or 0.29 mg/kg) of the same compound?
Answer: Its Margin of safety is 27.6X.

Question: And the Margin of safety ([5]; rat, 14 days, IV 20 minute infusion, clinical dose 20 mg/day or 0.29 mg/kg)?
Answer: The Margin of safety was 5.6X.

Question: What about the t1/2 ([5]; rat, in vivo) of the same compound?
Answer: Its t1/2 is “a few hours”.

Question: And the “HED of NOAEL” value ([5]; rat, single dose, IV bolus)?
Answer: Its value is 4.8 mg/kg.

Question: And the Margin of safety ([5]; rat, single dose, IV bolus, clinical dose 20 mg/day or 0.29 mg/kg)?
Answer: The Margin of safety was 16.6X.
